Assay results from US9718823B2, “2, 6-Di-nitrogen-containing substituted purine derivative, and preparation method, pharmaceutical composition and use thereof” (Zhejiang Medicine Co., Ltd. Xinchang Pharmaceutical Factory, priority 2013, dated 2017).

What was measured:
Type in all cases: biochemical
PI3Kδ = molecular target: T1, PI3Kδ (Homo sapiens, UniProt O00329); assay: Inhibitory activity to PI3K δ, PI 3-Kinase (human) HTRF Assay kit; conditions: read-out: Inhibition rate % to PI3Kδ; for inhibition at 1 µM: 1 μM (Table 7); for inhibition at 10 µM: 10 μM (Table 7)
T1 construct: purchased Millipore 14-604
T1 sequence (O00329 whole entry): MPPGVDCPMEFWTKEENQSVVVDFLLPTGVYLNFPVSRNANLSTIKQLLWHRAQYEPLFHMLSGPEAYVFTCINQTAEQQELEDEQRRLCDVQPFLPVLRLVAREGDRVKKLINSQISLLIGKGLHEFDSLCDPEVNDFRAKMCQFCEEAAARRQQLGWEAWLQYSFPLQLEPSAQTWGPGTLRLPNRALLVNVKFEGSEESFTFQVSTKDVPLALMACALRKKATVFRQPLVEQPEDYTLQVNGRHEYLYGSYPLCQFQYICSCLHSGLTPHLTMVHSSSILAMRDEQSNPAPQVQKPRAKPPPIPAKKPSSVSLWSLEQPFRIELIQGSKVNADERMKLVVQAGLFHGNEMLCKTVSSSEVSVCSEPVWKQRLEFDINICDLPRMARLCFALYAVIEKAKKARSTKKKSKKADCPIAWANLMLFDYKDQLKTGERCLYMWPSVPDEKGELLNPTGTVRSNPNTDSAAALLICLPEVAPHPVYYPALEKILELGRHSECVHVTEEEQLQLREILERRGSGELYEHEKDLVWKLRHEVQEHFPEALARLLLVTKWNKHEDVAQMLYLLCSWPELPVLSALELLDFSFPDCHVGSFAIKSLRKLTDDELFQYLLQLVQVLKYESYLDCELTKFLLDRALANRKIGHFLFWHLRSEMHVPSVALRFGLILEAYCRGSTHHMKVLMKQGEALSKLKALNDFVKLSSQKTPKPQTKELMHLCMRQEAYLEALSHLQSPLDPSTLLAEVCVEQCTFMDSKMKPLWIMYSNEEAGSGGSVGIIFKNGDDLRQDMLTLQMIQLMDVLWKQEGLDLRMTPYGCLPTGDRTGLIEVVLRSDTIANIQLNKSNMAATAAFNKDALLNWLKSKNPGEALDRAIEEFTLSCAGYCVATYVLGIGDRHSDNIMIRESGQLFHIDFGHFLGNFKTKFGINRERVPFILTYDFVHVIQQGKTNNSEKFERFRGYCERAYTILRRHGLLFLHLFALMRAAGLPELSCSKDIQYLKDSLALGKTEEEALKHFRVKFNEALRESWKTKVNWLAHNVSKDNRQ
T1 sequence (P27986 whole entry partner): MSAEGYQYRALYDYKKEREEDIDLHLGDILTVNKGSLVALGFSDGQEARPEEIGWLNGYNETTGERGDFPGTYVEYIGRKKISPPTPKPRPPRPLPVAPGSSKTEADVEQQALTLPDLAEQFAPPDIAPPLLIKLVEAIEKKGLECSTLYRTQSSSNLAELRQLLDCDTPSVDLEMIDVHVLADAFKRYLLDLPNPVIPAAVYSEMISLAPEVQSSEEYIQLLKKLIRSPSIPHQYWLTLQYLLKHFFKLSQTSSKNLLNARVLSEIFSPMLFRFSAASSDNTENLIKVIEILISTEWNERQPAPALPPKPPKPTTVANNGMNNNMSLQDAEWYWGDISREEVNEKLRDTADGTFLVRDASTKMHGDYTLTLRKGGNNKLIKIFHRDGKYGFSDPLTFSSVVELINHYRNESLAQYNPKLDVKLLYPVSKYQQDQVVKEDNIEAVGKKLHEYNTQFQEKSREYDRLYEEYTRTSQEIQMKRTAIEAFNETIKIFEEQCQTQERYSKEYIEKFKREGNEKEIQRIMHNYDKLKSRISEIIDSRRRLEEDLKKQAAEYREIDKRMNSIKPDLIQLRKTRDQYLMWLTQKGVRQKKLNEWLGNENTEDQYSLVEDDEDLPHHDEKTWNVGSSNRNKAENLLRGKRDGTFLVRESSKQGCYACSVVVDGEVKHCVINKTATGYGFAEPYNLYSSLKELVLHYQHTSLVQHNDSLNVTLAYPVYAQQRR
Method: Study on the inhibitory activity of the compounds of present invention to PI 3κα, PI3κδ and PI3κγ.
(§1) PI 3-Kinase (human) HTRF™ Assay kit (Cat.33-017, Millipore)
For example, 10 μL DTT is added into 500 μL 4× Reaction Buffer, and water is added to 1.5 mL.
The Test compounds are dissolved with DMSO to 1 mM as storage liquid. 2 μL of each of storage liquid is added into 48 μL ddH2O, to obtain the 40 μM compounds solution containing 4% DMSO. After mixing, 3 μL of each of the solution is added into 27 μL 4% DMSO (in ddH2O) to obtain the 4 μM compounds solution. […]
The screening concentration of PI 3k δ kinase: 2 ng/well,
(§2) Kinase is diluted with 2×PIP2 operating fluid, the concentration of kinase operating fluid is 2 times of screening concentration.
The concentration of ATP is 100 μM in 20 μL kinase reaction system.
(§3) Stop A and Stop B are mixed according to the proportion of 3:1, and are placed for 2 hours at room temperature to obtain the stop solution available.
(§4) DM C, DM A and DM B are mixed according to the proportion of 18:1:1, and are placed for 2 hours at room temperature to obtain the detection solution available.

PDGFR β enzyme = molecular target: T2, PDGFR β enzyme (Homo sapiens, UniProt P09619); assay: Inhibitory activity to PDGFR β enzyme, HTRF kinEASE TK kit; conditions: read-out: Inhibition rate % (PDGFR β)
T2 construct: purchased Invitrogen P3082
T2 sequence (P09619 33-1106): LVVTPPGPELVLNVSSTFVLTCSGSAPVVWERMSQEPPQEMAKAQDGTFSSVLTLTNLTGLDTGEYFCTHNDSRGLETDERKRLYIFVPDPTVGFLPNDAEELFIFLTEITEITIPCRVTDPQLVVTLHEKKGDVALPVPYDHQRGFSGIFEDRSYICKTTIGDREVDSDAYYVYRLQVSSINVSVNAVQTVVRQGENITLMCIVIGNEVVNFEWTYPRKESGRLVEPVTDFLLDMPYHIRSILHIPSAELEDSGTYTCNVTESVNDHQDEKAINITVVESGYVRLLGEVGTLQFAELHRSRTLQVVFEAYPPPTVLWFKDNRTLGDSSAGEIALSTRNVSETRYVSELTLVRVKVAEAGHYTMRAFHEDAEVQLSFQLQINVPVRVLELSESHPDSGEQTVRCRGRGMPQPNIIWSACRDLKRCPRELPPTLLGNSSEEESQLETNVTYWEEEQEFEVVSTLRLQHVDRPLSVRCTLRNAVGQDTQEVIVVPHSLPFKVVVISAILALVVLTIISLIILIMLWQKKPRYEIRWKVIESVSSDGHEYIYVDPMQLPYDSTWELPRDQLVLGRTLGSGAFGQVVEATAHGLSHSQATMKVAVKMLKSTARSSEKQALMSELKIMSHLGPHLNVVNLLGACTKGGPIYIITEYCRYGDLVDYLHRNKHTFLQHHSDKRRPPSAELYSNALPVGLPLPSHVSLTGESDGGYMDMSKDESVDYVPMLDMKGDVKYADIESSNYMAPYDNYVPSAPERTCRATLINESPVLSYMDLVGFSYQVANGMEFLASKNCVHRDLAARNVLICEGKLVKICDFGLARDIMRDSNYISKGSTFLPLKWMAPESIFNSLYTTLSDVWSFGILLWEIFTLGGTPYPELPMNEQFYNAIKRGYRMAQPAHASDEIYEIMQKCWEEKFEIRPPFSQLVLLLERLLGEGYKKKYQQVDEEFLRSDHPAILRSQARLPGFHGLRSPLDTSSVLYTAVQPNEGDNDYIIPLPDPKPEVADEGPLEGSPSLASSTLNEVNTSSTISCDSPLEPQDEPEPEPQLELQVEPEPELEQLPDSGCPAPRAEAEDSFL
Method: HTRF kinEASE TK (Cat.62TK0PEC, Cisbio)
PDGFR β enzyme (Cat.P3082, Invitrogen)
1 mL 1×Kinase Buffer includes 200 μL 5×Enzyme buffer, 5 μL 1M MgCl2, 1 μL 1M DTT, 1 μL 1M MnCl2, 20 μL 2500 nM SEB, 773 μL ddH2O.
TK-Substrate and ATP are diluted to 2.5 times of reaction concentration with 1×PDGFR β Kinase Buffer.
5×PDGFR β enzyme working solution is prepared with 1×PDGFR β kinase buffer.
4×Sa-XL665 working solution is prepared with Detection Buffer.
TK-Ab-Cryptate is diluted 100 times with Detection Buffer to use as working solution.

PI3 K γ = molecular target: T3, PI3 K γ (Homo sapiens, UniProt P48736); assay: Inhibitory activity to PI3K γ, PI 3-Kinase (human) HTRF Assay kit; conditions: read-out: Inhibition rate % to PI3 K γ
T3 construct: purchased Biology, Medicilon
T3 sequence (P48736 whole entry): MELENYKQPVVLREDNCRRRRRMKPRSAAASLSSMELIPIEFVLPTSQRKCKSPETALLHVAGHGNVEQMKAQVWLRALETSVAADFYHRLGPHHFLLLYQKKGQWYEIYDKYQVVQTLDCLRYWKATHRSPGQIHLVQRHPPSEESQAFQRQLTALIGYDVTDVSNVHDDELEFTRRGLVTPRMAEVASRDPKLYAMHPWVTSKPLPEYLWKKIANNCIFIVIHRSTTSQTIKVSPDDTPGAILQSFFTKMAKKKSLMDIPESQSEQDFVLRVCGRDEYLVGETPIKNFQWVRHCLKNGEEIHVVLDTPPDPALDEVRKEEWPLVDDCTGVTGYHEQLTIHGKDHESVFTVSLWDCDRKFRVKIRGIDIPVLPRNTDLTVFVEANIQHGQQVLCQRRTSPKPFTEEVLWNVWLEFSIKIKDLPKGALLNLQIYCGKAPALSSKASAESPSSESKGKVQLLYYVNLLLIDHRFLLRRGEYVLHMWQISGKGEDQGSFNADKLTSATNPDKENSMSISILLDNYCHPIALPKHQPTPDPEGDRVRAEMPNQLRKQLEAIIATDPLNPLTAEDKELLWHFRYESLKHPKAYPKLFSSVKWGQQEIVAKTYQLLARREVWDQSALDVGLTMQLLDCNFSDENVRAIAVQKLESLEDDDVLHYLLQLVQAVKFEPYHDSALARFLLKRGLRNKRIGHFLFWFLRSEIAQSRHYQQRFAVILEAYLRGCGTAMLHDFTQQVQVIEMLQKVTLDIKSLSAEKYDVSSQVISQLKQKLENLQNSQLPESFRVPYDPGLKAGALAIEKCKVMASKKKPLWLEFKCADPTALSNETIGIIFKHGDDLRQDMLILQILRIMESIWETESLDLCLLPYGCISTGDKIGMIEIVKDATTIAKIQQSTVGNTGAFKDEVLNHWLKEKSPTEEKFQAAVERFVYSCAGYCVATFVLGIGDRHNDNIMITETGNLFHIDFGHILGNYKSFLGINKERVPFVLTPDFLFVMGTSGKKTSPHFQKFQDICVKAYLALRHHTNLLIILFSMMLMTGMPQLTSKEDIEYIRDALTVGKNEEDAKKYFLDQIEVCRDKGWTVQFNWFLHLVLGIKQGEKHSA
Text: (§5) Study on the inhibitory activity of the compounds of present invention to PI 3κα, PI3κδ and PI3κγ. Two or three concentrations of the compounds are selected to preliminary screening to calculate respectively the activity inhibition rate of the compounds of corresponding concentrations to enzyme, then the compounds with better activity are selected by preliminary screening for IC50 test.
as §1
PI 3k γ (Biology, Medicilon)
(§6) 4× Reaction Buffer (Cat.33-002, Millipore) is diluted with ddH2O to 1.33×, and 1M DTT is added to make the final concentration as 6.67 mM. For example, 10 μL DTT is added into 500 μL 4× Reaction Buffer, and water is added to 1.5 mL.
(§7) The Test compounds are dissolved with DMSO to 1 mM as storage liquid. 2 μL of each of storage liquid is added into 48 μL ddH2O, to obtain the 40 μM compounds solution containing 4% DMSO. After mixing, 3 μL of each of the solution is added into 27 μL 4% DMSO (in ddH2O) to obtain the 4 μM compounds solution. 5 μL of each dilute solution is added into 384-well plates, then the final concentration of the compounds in the 20 μL final kinase reaction system is 10 μM and 1 μM respectively contained 1% DMSO. The dilution methods of compounds are similar to the preliminary screening in IC50 test.
(§8) 2×PIP2 working fluid is prepared with 1.33× reaction buffer to the final concentration of 20 μM.
The screening concentration of PI 3k γ kinase: 80 ng/well,
as §2
(§9) 10 mM ATP is diluted with 1.33× reaction buffer to 400 μM. The concentration of ATP is 100 μM in 20 μL kinase reaction system.
as §3, §4

PI3K α = molecular target: T4, PI3K α (Homo sapiens, UniProt P42336); assay: Inhibitory activity to PI3K α, PI 3-Kinase (human) HTRF Assay kit; conditions: read-out: % Inhibition Rate to PI3K α
T4 construct: purchased Millipore 14-602
T4 sequence (P42336 whole entry): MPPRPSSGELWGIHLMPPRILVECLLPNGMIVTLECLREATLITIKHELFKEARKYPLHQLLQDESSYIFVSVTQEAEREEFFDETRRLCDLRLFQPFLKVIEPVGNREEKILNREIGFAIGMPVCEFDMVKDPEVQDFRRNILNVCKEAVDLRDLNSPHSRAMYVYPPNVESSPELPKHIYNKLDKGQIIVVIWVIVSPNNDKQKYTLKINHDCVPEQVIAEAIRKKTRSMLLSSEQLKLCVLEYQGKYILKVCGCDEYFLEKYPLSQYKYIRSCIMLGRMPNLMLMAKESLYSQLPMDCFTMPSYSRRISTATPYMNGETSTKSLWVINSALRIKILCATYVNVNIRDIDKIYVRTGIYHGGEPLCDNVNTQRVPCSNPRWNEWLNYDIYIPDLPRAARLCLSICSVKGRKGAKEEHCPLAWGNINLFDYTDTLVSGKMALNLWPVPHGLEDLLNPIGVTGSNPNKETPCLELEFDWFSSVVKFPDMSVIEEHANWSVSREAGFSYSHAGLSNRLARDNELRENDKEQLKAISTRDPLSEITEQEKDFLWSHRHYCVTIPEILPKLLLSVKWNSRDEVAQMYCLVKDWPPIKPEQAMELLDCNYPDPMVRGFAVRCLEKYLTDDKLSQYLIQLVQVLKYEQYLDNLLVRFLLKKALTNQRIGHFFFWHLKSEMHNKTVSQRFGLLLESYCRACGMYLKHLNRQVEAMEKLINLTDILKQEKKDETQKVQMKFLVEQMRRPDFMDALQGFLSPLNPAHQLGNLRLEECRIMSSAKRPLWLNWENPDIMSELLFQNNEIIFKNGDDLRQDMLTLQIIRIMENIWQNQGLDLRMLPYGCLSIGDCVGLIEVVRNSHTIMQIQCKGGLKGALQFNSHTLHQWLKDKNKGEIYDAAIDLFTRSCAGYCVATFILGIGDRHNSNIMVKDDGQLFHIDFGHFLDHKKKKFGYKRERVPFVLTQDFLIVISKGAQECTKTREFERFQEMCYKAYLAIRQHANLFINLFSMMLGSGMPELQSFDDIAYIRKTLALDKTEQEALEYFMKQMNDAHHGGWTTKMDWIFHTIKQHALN
T4 sequence (P27986 whole entry partner): as the sequence (P27986 whole entry partner) above
Text: as §5, §1
PI 3k α (Cat.14-602, Millipore)
as §6, §7, §8
The screening concentration of PI 3k α kinase: 8 ng/well,
as §2, §9, §3, §4

| Compound | inhibition at 1 µM (PI3Kδ) | inhibition at 10 µM (PI3Kδ) | inhibition at 1 µM (PDGFR β enzyme) | inhibition at 10 µM (PDGFR β enzyme) | inhibition at 1 µM (PI3 K γ) | inhibition at 10 µM (PI3 K γ) | inhibition at 1 µM (PI3K α) | inhibition at 10 µM (PI3K α) |
| --- | --- | --- | --- | --- | --- | --- | --- | --- |
| COc1ccccc1-c1ccnc2ccc(Nc3nc(NC4CC4)c4nc[nH]c4n3)cc12 [MED1007-86, N6-cyclopropyl-N2-(4-(2-methoxyphenyl)quinoline-6-yl)-9H-purine-2,6-diamine] | 27.3% | 66.4% | -5.49% | -3.13% | 8.35% | 23.1% | 19.2% | 39.6% |
| COCCCNc1nc(Nc2ccc3nccc(-c4ccccc4)c3c2)nc2[nH]cnc12 [MED1007-67, N6-(3-methoxypropyl)-N2-(4-phenylquinoline-6-yl)-9H-purine-2,6-diamine] | 11.3% | 32% | 22.2% | 18.7% | 0.71% | 10.2% | 3.77% | 37.2% |
| COCCNc1nc(Nc2ccc3nccc(-c4ccccc4)c3c2)nc2[nH]cnc12 [MED1007-68, N6-(2-methoxyethyl)-N2-(4-phenylquinoline-6-yl)-9H-purine-2,6-diamine] | 20.7% | 42.3% | 18.7% | 11.7% | -0.02% | 10.8% | 7.74% | 51.9% |
| c1ccc(-c2ccnc3ccc(Nc4nc(OC5CCC5)c5nc[nH]c5n4)cc23)cc1 [MED1007-98] | 71.1% | 105% | 38.1% | 37.8% | 32.8% | 105% | 102% | 118% |
| c1ccc(-c2ccnc3ccc(Nc4nc(NC5CC5)c5ncn(C6CCNCC6)c5n4)cc23)cc1 [MED1007-66, N6-cyclopropyl-N2-(4-phenylquinoline-6-yl)-9-(piperidine-4-yl)-9H-purine-2,6-diamine] | 4.75% | 19.8% | 17% | 14.5% | 1.48% | -2.46% | -2.28% | -4.35% |
| c1ccc(-c2ccnc3ccc(Nc4nc(NC5CCC5)c5nc[nH]c5n4)cc23)cc1 [MED1007-75, N6-cyclobutyl-N2-(4-phenylquinoline-6-yl)-9H-purine-2,6-diamine] | 10.9% | 42.6% | 13.2% | 8.74% | 6.93% | 10.9% | 11.1% | 51.3% |
